Experimental findings from ChEMBL document CHEMBL2417453, “Anti-inflammatory asterosaponins from the starfish Astropecten monacanthus” (J Nat Prod, 2013) are described below.

Format in all cases: functional, cell-based
Conditions in all cases: C57BL/6, BMDC

Assay [1] in a line: Antiinflammatory activity in C57BL/6 mouse BMDC cells assessed as inhibition of LPS-induced TNFalpha production preincubated for 1 hr prior to LPS-stimulation measured after 18 hrs by ELISA. (In general: ELISA stands for enzyme-linked immunosorbent assay.)
The nature of assay [2]: Antiinflammatory activity in C57BL/6 mouse BMDC cells assessed as inhibition of LPS-induced IL-6 production preincubated for 1 hr prior to LPS-stimulation measured after 18 hrs by ELISA.
Assay [3] can be described thus: Antiinflammatory activity in C57BL/6 mouse BMDC cells assessed as inhibition of LPS-induced IL-12 p40 production preincubated for 1 hr prior to LPS-stimulation measured after 18 hrs by ELISA.

As a reminder, the IC50 is the midpoint of a concentration-inhibition curve. With `CC(=O)[C@H]1CC[C@H]2[C@@H]3C[C@H](O[C@@H]4O[C@H](C)[C@@H](O)[C@H](O[C@@H]5OC[C@@H](O[C@@H]6O[C@H](CO)[C@H](O)[C@H](O)[C@H]6O[C@@H]6O[C@H](C)[C@H](O)[C@H](O[C@@H]7O[C@@H](CO)[C@H](O)[C@H]7O)[C@H]6O)[C@H](O)[C@H]5O[C@@H]5O[C@H](C)[C@@H](O)[C@H](O)[C@H]5O)[C@H]4O)[C@H]4C[C@@H](OS(=O)(=O)O)CC[C@]4(C)C3=CC[C@]12C`, the IC50 in assay [1] is > 50 µM; in assay [2], 30.5 µM; in assay [3], > 50 µM.

Regarding `CC(=O)CC(=O)C[C@@](C)(O)[C@H]1CC[C@H]2[C@@H]3C[C@H](O[C@@H]4O[C@H](CO)[C@@H](O)[C@H](O[C@@H]5O[C@H](C)[C@@H](O[C@@H]6O[C@H](C)[C@H](O)[C@H](O)[C@H]6O[C@@H]6O[C@H](C)[C@H](O)[C@H](O)[C@H]6O)[C@H](O)[C@H]5O[C@@H]5O[C@H](C)[C@@H](O)[C@H](O)[C@H]5O)[C@H]4O)[C@H]4C[C@@H](OS(=O)(=O)O)CC[C@]4(C)C3=CC[C@@]21C`, the half-maximal inhibitory concentration (IC50) in assay [1] turned out to be 1.21 µM; in assay [2], 3.51 µM; in assay [3], 0.6 µM.

Consider `C[S+]([O-])c1ccc(-c2nc(-c3ccc(F)cc3)c(-c3ccncc3)[nH]2)cc1` (stereo unspecified) [SB-203580], for which the IC50 is 7.5 µM in assay [1], 3.5 µM in assay [2] and 5 µM in assay [3].

With `CC(C)CC(=O)C[C@](C)(O)[C@H]1CC[C@H]2[C@@H]3C[C@H](O[C@@H]4O[C@H](C)[C@@H](O)[C@H](O[C@@H]5OC[C@@H](O[C@@H]6O[C@H](CO)[C@H](O)[C@H](O)[C@H]6O[C@@H]6O[C@H](C)[C@H](O)[C@H](O[C@@H]7O[C@@H](CO)[C@H](O)[C@H]7O)[C@H]6O)[C@H](O)[C@H]5O[C@@H]5O[C@H](C)[C@@H](O)[C@H](O)[C@H]5O)[C@H]4O)[C@H]4C[C@@H](OS(=O)(=O)O)CC[C@]4(C)C3=CC[C@@]21C` [PSILASTEROSIDE], the IC50 in assay [1], in assay [2] and in assay [3] was > 50 µM in each case.

As to `C/C(=C\C(=O)CC(C)C)[C@H]1CC[C@H]2[C@@H]3C[C@H](O[C@@H]4O[C@H](C)[C@@H](O)[C@H](O[C@@H]5OC[C@@H](O[C@@H]6O[C@H](CO)[C@H](O)[C@H](O)[C@H]6O[C@@H]6O[C@H](C)[C@H](O)[C@H](O[C@@H]7O[C@@H](CO)[C@H](O)[C@H]7O)[C@H]6O)[C@H](O)[C@H]5O[C@@H]5O[C@H](C)[C@@H](O)[C@H](O)[C@H]5O)[C@H]4O)[C@H]4C[C@@H](OS(=O)(=O)O)CC[C@]4(C)C3=CC[C@]12C`, the IC50 in assay [1] was > 50 µM; in assay [2], 3.17 µM; in assay [3], > 50 µM.

`CC(C)C[C@H](O)C[C@](C)(O)[C@H]1CC[C@H]2[C@@H]3C[C@H](O[C@@H]4O[C@H](C)[C@@H](O)[C@H](O[C@@H]5OC[C@@H](O[C@@H]6O[C@H](CO)[C@H](O)[C@H](O)[C@H]6O[C@@H]6O[C@H](C)[C@H](O)[C@H](O[C@@H]7O[C@@H](CO)[C@H](O)[C@H]7O)[C@H]6O)[C@H](O)[C@H]5O[C@@H]5O[C@H](C)[C@@H](O)[C@H](O)[C@H]5O)[C@H]4O)[C@H]4C[C@@H](OS(=O)(=O)O)CC[C@]4(C)C3=CC[C@@]21C`: the IC50 in assay [1], in assay [2] and in assay [3] was > 50 µM in each case.

For `CC(C)=CC(=O)C[C@@H](C)[C@H]1CC[C@H]2[C@@H]3C[C@H](O[C@@H]4O[C@H](CO)[C@@H](O)[C@H](O[C@@H]5O[C@H](C)[C@@H](O[C@@H]6O[C@H](C)[C@H](O)[C@H](O)[C@H]6O[C@@H]6O[C@H](C)[C@H](O)[C@H](O)[C@H]6O)[C@H](O)[C@H]5O[C@@H]5O[C@H](C)[C@@H](O)[C@H](O)[C@H]5O)[C@H]4O)[C@H]4C[C@@H](OS(=O)(=O)O)CC[C@]4(C)C3=CC[C@]12C`, the IC50 in assay [1] is > 50 µM; in assay [2], 4.37 µM; in assay [3], > 50 µM.
